A value given as a limit tells only on which side of the number the result lay.

For the first test, the system named is Escherichia coli ATCC 25922. Put plainly: 50% growth inhibitory concentration (IC50) determination, Iso-Sensitest broth dilution. The settings on record: Escherichia coli, ATCC25922, 16 h, strain Escherichia coli ATCC 25922; 10-point broth dilution, optical density at 600 nm over 16 h; read-out: Escherichia coli growth inhibition IC50. The test is classed as cell-based. The method, then:
50% Growth Inhibitory Concentration (IC50) Determination
The in vitro antimicrobial activity of the compounds was determined according to the following procedure:
The assay used a 10-point Iso-Sensitest broth dilution method to measure quantitatively the in vitro
ATCC 25922, Acinetobacter baumannii ATCC 17961, Klebsiella pneumoniae ATCC 43816 and Staphylococcus aureus ATCC 29213.
Stock compounds in DMSO were serially twofold diluted (e.g. range from 50 to 0.097 μM final concentration) in 384 wells microtiter plates and inoculated with 50 μL of the bacterial suspension in Iso-
ell of 50 μL/well. Microtiter plates were incubated at 35±2° C.
Bacterial cell growth was determined with the measurement of optical density at λ=600 nm each 20 minutes over a time course of 16 h.
Growth inhibition was calculated during the logarithmic growth of the bacterial cells with
Table 1 provides the 50% growth inhibitory concentrations (IC50) in micromoles per liter of the compounds of present invention obtained against the strain Escherichia coli ATCC 25922.
(In general: Dilution methods test growth across graded concentrations, often in twofold steps.)
Usually IC50 stands for the concentration that inhibits the measured activity by half. As to `CC(C)(N)COc1cc(C#N)c2c(c1)CC(CN1CCC3(CC1)CN(c1cnc4c(n1)NC(=O)CO4)C(=O)O3)C2` (centres unmarked) [Example 407, 6-(2-amino-2-methylpropoxy)-2-[[2-oxo-3-(3-oxo-4H-pyrazino[2,3-b][1,4]oxazin-6-yl)-1-oxa-3,8-diazaspiro[4.5]decan-8-yl]methyl]-2,3-dihydro-1H-indene-4-carbonitrile], the 50% inhibitory concentration (IC50) is below 97.7 nM.

Turning to `O=C1COc2ccc(N3CC([C@H]4C[C@H](NC5Cc6cccc(Cl)c6C5)C4)OC3=O)nc2N1` (stereo partly drawn) [Example 17, 6-[5-[trans-3-[(4-chloro-2,3-dihydro-1H-inden-2-yl)amino]cyclobutyl]-2-oxo-1,3-oxazolidin-3-yl]-4H-pyrido[3,2-b][1,4]oxazin-3-one], the half-inhibitory concentration (IC50) is 823 nM.

For the molecule `NC1c2cccc(F)c2CC1CNCCC1CN(c2cnc3c(n2)NC(=O)CO3)C(=O)O1` (racemic) [Example 164, 6-[5-[2-[(rac-1,2-trans-1-amino-4-fluoro-2,3-dihydro-1H-inden-2-yl)methylamino]ethyl]-2-oxo-1,3-oxazolidin-3-yl]-4H-pyrazino[2,3-b][1,4]oxazin-3-one; formic acid], the half-maximal inhibitory concentration (IC50) was below 97.7 nM.

Consider `COc1ncc(F)c2c1CC(CNCCC1CN(c3cnc4c(n3)NC(=O)CO4)C(=O)O1)C2` (centres unmarked) [Example 71, 6-[5-[2-[(4-fluoro-1-methoxy-6,7-dihydro-5H-cyclopenta[c]pyridin-6-yl)methylamino]ethyl]-2-oxo-oxazolidin-3-yl]-4H-pyrazino[2,3-b][1,4]oxazin-3-one], for which the half-inhibitory concentration (IC50) is below 97.7 nM.

For `CC(C)(N)COc1cc(C#N)c2c(c1)CC(CNCCC1CN(c3cnc4c(n3)NC(=O)CO4)C(=O)O1)C2` (centres unmarked) [Example 204, 6-(2-amino-2-methylpropoxy)-2-(((2-(2-oxo-3-(3-oxo-3,4-dihydro-2H-pyrazino[2,3-b][1,4]oxazin-6-yl)oxazolidin-5-yl)ethyl)amino)methyl)-2,3-dihydro-1H-indene-4-carbonitrile], the IC50 is below 97.7 nM.

As to `CCn1cc(C(=O)O)c(=O)c2cc(F)c3c(c21)CC(CNCCC1CN(c2ccc4c(n2)NC(=O)CO4)C(=O)O1)C3` (centres unmarked) [Example 239, 1-Ethyl-6-fluoro-4-oxo-8-[[2-[2-oxo-3-(3-oxo-4H-pyrido[3,2-b][1,4]oxazin-6-yl)-1,3-oxazolidin-5-yl]ethylamino]methyl]-8,9-dihydro-7H-cyclopenta[h]quinoline-3-carboxylic acid], the IC50 was below 97.7 nM.

As to `N#Cc1cc(OCC2(N)CC2)cc2c1CC(CCN1CC3(C1)CN(c1ccc4c(n1)NC(=O)CO4)C(=O)O3)C2` (centres unmarked) [Example 197, 6-((1-aminocyclopropyl)methoxy)-2-(2-(6-oxo-7-(3-oxo-3,4-dihydro-2H-pyrido[3,2-b][1,4]oxazin-6-yl)-5-oxa-2,7-diazaspiro[3.4]octan-2-yl)ethyl)-2,3-dihydro-1H-indene-4-carbonitrile], the IC50 was below 97.7 nM.

Regarding `O=C1COc2ncc(N3CC4(CCN(CC5Cc6ccnc(Cl)c6C5)CC4)OC3=O)nc2N1` (centres unmarked) [Example 373, 6-[8-[(1-chloro-6,7-dihydro-5H-cyclopenta[c]pyridin-6-yl)methyl]-2-oxo-1-oxa-3,8-diazaspiro[4.5]decan-3-yl]-4H-pyrazino[2,3-b][1,4]oxazin-3-one], the IC50 was below 97.7 nM.

With `O=C1COc2ncc(N3CC(CCNCC4Cc5cc(OCC(=O)NC6CC6)cc(F)c5C4)OC3=O)nc2N1` (centres unmarked) [Example 346, N-cyclopropyl-2-[[7-fluoro-2-[[2-[2-oxo-3-(3-oxo-4H-pyrazino[2,3-b][1,4]oxazin-6-yl)-1,3-oxazolidm-5-yl]ethylamino]methyl]-2,3-dihydro-1H-inden-5-yl]oxy]acetamide; formic acid], the IC50 came to 311 nM.

On to `Cc1c(OC[C@H](N)CO)nc(C#N)c2c1CC(CNCCC1CN(c3ccc4c(n3)NC(=O)CO4)C(=O)O1)C2` (stereo partly drawn) [Example 235, 3-[(2R)-2-Amino-3-hydroxypropoxy]-4-methyl-6-[[2-[2-oxo-3-(3-oxo-4H-pyrido[3,2-b][1,4]oxazin-6-yl)-1,3-oxazolidin-5-yl]ethylamino]methyl]-6,7-dihydro-5H-cyclopenta[c]pyridine-1-carbonitrile], for which the concentration for half-maximal inhibition (IC50) stood at 196 nM.

For the molecule `COc1cc2c(c(C#N)n1)CC(CNCCC1CN(c3cnc4c(n3)NC(=O)CO4)C(=O)O1)C2` (centres unmarked) [Example 65, 3-methoxy-6-[[2-[2-oxo-3-(3-oxo-4H-pyrazino[2,3-b][1,4]oxazin-6-yl)oxazolidin-5-yl]ethylamino]methyl]-6,7-dihydro-5H-cyclopenta[c]pyridine-1-carbonitrile; formic acid], the half-maximal inhibitory concentration (IC50) was below 97.7 nM.

As to `NC1c2ccnc(Cl)c2CC1CNCCC1CN(c2ccc3c(n2)NC(=O)CO3)C(=O)O1` (stereo not drawn) [Example 123, 6-[2-oxo-5-[2-[[5,6-trans-5-amino-1-chloro-6,7-dihydro-5H-cyclopenta[c]pyridin-6-yl]methylamino]ethyl]-1,3-oxazolidin-3-yl]-4H-pyrido[3,2-b][1,4]oxazin-3-one; formic acid], the IC50 was determined as 248 nM.

With `N#Cc1cccc2c1CC(CN[C@H]1C[C@]3(CN(c4ccc5c(n4)NC(=O)CO5)C(=O)O3)C1)C2` (stereo partly drawn) [Example 183, 2-[[[2,4-cis-6-oxo-7-(3-oxo-4H-pyrido[3,2-b][1,4]oxazin-6-yl)-5-oxa-7-azaspiro[3.4]octan-2-yl]amino]methyl]-2,3-dihydro-1H-indene-4-carbonitrile], the IC50 turned out to be 153 nM.

In the case of `Cc1nc(OC[C@@H]2CCN2)c(C)c2c1CC(CNCCC1CN(c3ccc4c(n3)NC(=O)CO4)C(=O)O1)C2` (stereo partly drawn) [Example 200, 6-[5-[2-[[3-[[(2S)-azetidin-2-yl]methoxy]-1,4-dimethyl-6,7-dihydro-5H-cyclopenta[c]pyridin-6-yl]methylamino]ethyl]-2-oxo-1,3-oxazolidin-3-yl]-4H-pyrido[3,2-b][1,4]oxazin-3-one], the concentration for half-maximal inhibition (IC50) is 320 nM.

`Cc1nc(C#N)c2c(c1F)CC(CNCCC1CN(c3cnc4c(n3)NC(=O)CO4)C(=O)O1)C2` (centres unmarked) [Example 363, 4-fluoro-3-methyl-6-[[2-[2-oxo-3-(3-oxo-4H-pyrazino[2,3-b][1,4]oxazin-6-yl)-1,3-oxazolidin-5-yl]ethylamino]methyl]-6,7-dihydro-5H-cyclopenta[c]pyridine-1-carbonitrile; formic acid]: the half-inhibitory concentration (IC50) was below 97.7 nM.

With `CC(C)(CC1CN(c2ccc3c(n2)NC(=O)CO3)C(=O)O1)NCC1Cc2cccc(C#N)c2C1` (centres unmarked) [Example 29, 2-[[[2-methyl-1-[2-oxo-3-(3-oxo-4H-pyrido[3,2-b][1,4]oxazin-6-yl)-1,3-oxazolidin-5-yl]propan-2-yl]amino]methyl]-2,3-dihydro-1H-indene-4-carbonitrile], the IC50 was 945 nM.

Consider `O=C1COc2ccc(N3CC(CCNCC4Cc5cccc(Cl)c5C4)OC3=O)nc2N1` (single isomer, unassigned; isomer a) [Example 6, 6-[5-[2-[(4-chloro-2,3-dihydro-1H-inden-2-yl)methylamino]ethyl]-2-oxo-1,3-oxazolidin-3-yl]-4H-pyrido[3,2-b][1,4]oxazin-3-one, Isomer A], for which the IC50 is below 97.7 nM.

Take `O=C1COc2ncc(N3CC(CCNCC4Cc5cc(O)cc(F)c5C4)OC3=O)nc2N1` (centres unmarked) [Example 317, 6-[5-[2-[(4-Fluoro-6-hydroxy-2,3-dihydro-1H-inden-2-yl)methylamino]ethyl]-2-oxo-1,3-oxazolidin-3-yl]-4H-pyrazino[2,3-b][1,4]oxazin-3-one]: the IC50 is below 97.7 nM.

For `CC(N)COc1cc(F)c2c(c1)CC(CCN1CC3(C1)CN(c1cnc4c(n1)NC(=O)CO4)C(=O)O3)C2` (centres unmarked) [Example 327, 6-[2-[2-[6-(2-aminopropoxy)-4-fluoro-2,3-dihydro-1H-inden-2-yl]ethyl]-6-oxo-5-oxa-2,7-diazaspiro[3.4]octan-7-yl]-4H-pyrazino[2,3-b][1,4]oxazin-3-one], the 50% inhibitory concentration (IC50) is below 97.7 nM.

As to `Cc1ncnc2c1CC(CNCCC1CN(c3ccc4c(n3)NC(=O)CO4)C(=O)O1)C2` (centres unmarked) [Example 421, 6-[5-[2-[(4-methyl-6,7-dihydro-5H-cyclopenta[d]pyrimidin-6-yl)methylamino]ethyl]-2-oxo-1,3-oxazolidin-3-yl]-4H-pyrido[3,2-b][1,4] oxazin-3-one], the IC50 turned out to be 618 nM.

The test is the same for the next values; noted with them: strain Escherichia coli ATCC 25922; 10-point broth dilution, optical density at 600 nm over 16 h; read-out: Escherichia coli growth inhibition IC50.
Consider `Cc1ncc(F)c2c1CC(NCCCc1cn(-c3cnc4c(n3)NC(=O)CO4)c(=O)o1)C2` (single isomer, unassigned; enantiomer b) [Example 368, 6-[5-[3-[(4-Fluoro-1-methyl-6,7-dihydro-5H-cyclopenta[c]pyridin-6-yl)amino]propyl]-2-oxo-1,3-oxazol-3-yl]-4H-pyrazino[2,3-b][1,4]oxazin-3-one, Enantiomer B], for which the concentration for half-maximal inhibition (IC50) was below 97.7 nM.

Turning to `Cc1ncc(F)c2c1CC(NCC(O)CC1CN(c3cnc4c(n3)NC(=O)CO4)C(=O)O1)C2` (single isomer, unassigned; isomer b) [Example 314, 6-[2-Oxo-5-[3-[(4-fluoro-1-methyl-6,7-dihydro-5H-cyclopenta[c]pyridin-6-yl)amino]-2-hydroxypropyl]-1,3-oxazolidin-3-yl]-4H-pyrazino[2,3-b][1,4]oxazin-3-one; formic acid, Isomer B], the 50% inhibitory concentration (IC50) stood at 1180 nM.

`O=C1COc2ncc(N3CC(CC(O)CNC4Cc5cccc(F)c5C4)OC3=O)nc2N1` (single isomer, unassigned; isomer a) [Example 83, 6-[5-[3-[(4-fluoro-2,3-dihydro-1H-inden-2-yl)amino]-2-hydroxypropyl]-2-oxo-1,3-oxazolidin-3-yl]-4H-pyrazino[2,3-b][1,4]oxazin-3-one, Isomer A; formic acid]: the 50% inhibitory concentration (IC50) is below 97.7 nM.

The record behind these values is US20230167127A1, “COMPOUNDS AND THEIR USE IN THE TREATMENT OF BACTERIAL INFECTION” (Hoffmann-La Roche Inc., priority 2020, published 2023).
